42 compounds from US9556205B2, “Fungicide N-[(trisubstitutedsilyl)methyl]-carboxamide derivatives” (BAYER INTELLECTUAL PROPERTY GMBH, priority 2010, dated 2017) can be followed below.

One data set deals with Alternaria solani. Description: In vivo preventive test on Alternaria solani (tomato). The settings on record: 500 ppm of active ingredient, evaluated 7 days after inoculation. Here is the method: Solvent: 49 parts by weight of N,N-dimethylformamide Emulsifier: 1 part by weight of Alkylarylpolyglycolether To produce a suitable preparation of active compound, 1 part by weight of active compound is mixed with the stated amounts of solvent and emulsifier, and the concentrate is diluted with water to the desired concentration. To test for preventive activity, young plants are sprayed with the preparation of active compound at the stated rate of application. One day after this treatment, the plants are inoculated with an aqueous spore suspension of Alternaria solani. […] Then the plants are placed in an incubation cabinet at approximately 20° C. and a relative atmospheric humidity of 96%.

The subject of another data set is Aspergillus parasiticus. In kind it is cell-based. The note with it: 7 days at 20° C., OD620nm.
For data set [1], the system named is Aflatoxins production by Aspergillus parasiticus. Type of data set: cell-based.
For a further data set, the system named is Pyrenophora teres. Description: In vivo preventive test on Pyrenophora teres (barley), Example F. The settings on record: 500 ppm of active ingredient, evaluated 7-9 days after inoculation. The protocol:
Solvent: 49 parts by weight of N,N-dimethylformamide Emulsifier: 1 part by weight of alkylaryl polyglycol ether To produce a suitable preparation of active compound, 1 part by weight of active compound is mixed with the stated amounts of solvent and emulsifier, and the concentrate is diluted with water to the desired concentration. To test for preventive activity, young plants are sprayed with the preparation of active compound at the stated rate of application. One day after this treatment, the plants are inoculated with an aqueous spore suspension of Pyrenophora teres. […] Then the plants are placed in a greenhouse at a temperature of approximately 20° C. and a relative atmospheric humidity of approximately 80%.

Data set [2] can be described thus: log P by HPLC on reversed-phase column (C18), EEC Directive 79/831 Annex V.A8. In kind it is physicochemical. The note with it: 40° C., 0.1% aqueous formic acid and acetonitrile, linear gradient 10% to 90% acetonitrile. Here is the method:
In table 1, the log P values were determined in accordance with EEC Directive 79/831 Annex V.A8 by HPLC (High Performance Liquid Chromatography) on a reversed-phase column (C18), using the method described below:
Temperature: 40° C.; Mobile phases: 0.1% aqueous formic acid and acetonitrile; linear gradient from 10% acetonitrile to 90% acetonitrile.
Calibration was carried out using unbranched alkan-2-ones (comprising 3 to 16 carbon atoms) with known log P values (determination of the log P values by the retention times using linear interpolation between two successive alkanones). lambda-max-values were determined using UV-spectra from 200 nm to 400 nm and the peak values of the chromatographic signals.

For orientation: logP means the decadic logarithm of the partition coefficient of the neutral form, usually between octanol and water. Read a high logP as higher lipophilicity. One may read the chromatographic logP as lipophilicity estimated from chromatographic retention.

`Cn1nc(C(F)F)c(C(=O)NC[Si](C)(C)c2ccccc2)c1F` [Example 1]: the Efficacy with Alternaria solani and in the data set on Pyrenophora teres was 100% in each case. The “% Inhibition of fungal growth at 50 μM” value with Aspergillus parasiticus was 93%. For the same compound, the “% Inhibition of Aflatoxin at 50 μM” value in data set [1] came to 100%. Further, the logP in data set [2] amounted to 3.13.
Take `Cn1nc(C(F)F)c(C(=O)NC[Si](C)(C)c2ccccc2)c1Cl` [Example 2]: the Efficacy was 95% in the data set on Alternaria solani and 100% in the data set with Pyrenophora teres. Besides, the “% Inhibition of fungal growth at 50 μM” value in the data set on Aspergillus parasiticus was 71%. The “% Inhibition of Aflatoxin at 50 μM” value in data set [1] is given as 87%. For the same compound, the logP in data set [2] came to 3.31.
As to `Cc1cc(C(=O)NC[Si](C)(C)c2ccccc2)c(C)o1` [Example 3], the logP in data set [2] worked out at 3.48.
`Cc1nn(C)c(F)c1C(=O)N(C[Si](C)(C)c1ccccc1)C1CC1` [Example 8, N-cyclopropyl-N-{[dimethyl(phenyl)silyl]methyl}-5-fluoro-1,3-dimethyl-1H-pyrazole-4-carboxamide] returned a chromatographic logP in data set [2] of 3.19.
`Cc1cc(C(=O)NC[Si](C)(C)c2ccccc2Cl)c(C)o1` [Example 13]: the logP in data set [2] was found to be 3.85.
Consider `Cn1nc(C(F)F)c(C(=O)NC[Si](C)(C)c2ccccc2Cl)c1Cl` [Example 14], for which, in data set [2], the logP was 3.69.
`Cn1nc(C(F)F)c(C(=S)NC[Si](C)(C)c2ccccc2Cl)c1F` [Example 16] displayed an Efficacy with Alternaria solani of 70%. This compound yielded a logP in data set [2] of 4.11.
As to `Cc1cc(C(=O)N(C[Si](C)(C)c2ccccc2Cl)C2CC2)c(C)o1` [Example 22], the Efficacy in the data set with Alternaria solani amounted to 95%; in the data set on Pyrenophora teres it was 80%. The compound further came in with a logP in data set [2] of 4.74.
For `Cc1cc(C(=O)NC[Si](C)(C)c2cccc(Cl)c2)c(C)o1` [Example 23], in data set [2], the logP is 3.92.
Still for that read-out and setting: the figure for `Cn1cc(C(=O)NC[Si](C)(C)c2cccc(Cl)c2)c(C(F)F)c1` [Example 24] is 3.58.
On to `Cn1nc(C(F)F)c(C(=O)NC[Si](C)(C)c2cccc(Cl)c2)c1Cl` [Example 25], for which the Efficacy in the data set with Alternaria solani and with Pyrenophora teres was 100% throughout. In addition, in the data set on Aspergillus parasiticus, the “% Inhibition of fungal growth at 50 μM” value amounted to 84%. Besides, the “% Inhibition of Aflatoxin at 50 μM” value in data set [1] was found to be 99%. The same compound gave a logP in data set [2] of 3.71.
Consider `Cn1nc(C(F)F)c(C(=O)NC[Si](C)(C)c2cccc(Cl)c2)c1F` [Example 26], for which the Efficacy in the data set with Alternaria solani and in the data set on Pyrenophora teres was 100% each time. In addition, in the data set on Aspergillus parasiticus, the “% Inhibition of fungal growth at 50 μM” value is given as 100%. Further, the “% Inhibition of Aflatoxin at 50 μM” value in data set [1] was found to be 100%. Also, the logP in data set [2] came to 3.55.
On to `Cc1cc(C(=O)N(C[Si](C)(C)c2cccc(Cl)c2)C2CC2)c(C)o1` [Example 29], for which the Efficacy was 94% with Alternaria solani and 95% in the data set on Pyrenophora teres. Further, the logP in data set [2] was 4.78.
`Cc1cc(C(=O)NC[Si](C)(C)c2ccc(Cl)cc2Cl)c(C)o1` [Example 33] gave a logP in data set [2] of 4.46.
On the same count and under the same terms, as for `Cn1cc(C(=O)NC[Si](C)(C)c2ccc(Cl)cc2Cl)c(C(F)F)c1` [Example 34], the figure is 4.06.
In the data set with Alternaria solani, `Cn1nc(C(F)F)c(C(=O)NC[Si](C)(C)c2ccc(Cl)cc2Cl)c1Cl` [Example 35] showed an Efficacy of 90%. Besides, the logP in data set [2] is 4.25.
In the case of `Cn1nc(C(F)F)c(C(=O)NC[Si](C)(C)c2ccc(Cl)cc2Cl)c1F` [Example 36], the Efficacy in the data set with Alternaria solani and in the data set with Pyrenophora teres was 100% each time. For the same compound, the “% Inhibition of fungal growth at 50 μM” value with Aspergillus parasiticus is recorded as 84%. In data set [1], the “% Inhibition of Aflatoxin at 50 μM” value was determined as 100%. Further, the logP in data set [2] is on record as 4.06.
`Cn1nc(C(F)F)c(C(=S)NC[Si](C)(C)c2ccc(Cl)cc2Cl)c1F` [Example 37]: the logP in data set [2] is recorded as 4.74.
Take `Cc1nc(C(F)F)c(C(=O)N(C[Si](C)(C)c2ccc(Cl)cc2Cl)C2CC2)s1` [Example 43]: the Efficacy in the data set with Alternaria solani and with Pyrenophora teres was 100% each time. The compound also had a logP in data set [2] of 5.00.
`Cc1cc(C(=O)NC[Si](C)(C)c2cc(Cl)cc(Cl)c2)c(C)o1` [Example 44] displayed a logP in data set [2] of 4.54.
On the same count and under the same terms, as for `Cn1cc(C(=O)NC[Si](C)(C)c2cc(Cl)cc(Cl)c2)c(C(F)F)c1` [Example 45], the figure is 4.11.
For `Cn1nc(C(F)F)c(C(=O)NC[Si](C)(C)c2cc(Cl)cc(Cl)c2)c1Cl` [Example 46], the Efficacy was 95% with Alternaria solani and 100% in the data set on Pyrenophora teres. Moreover, the “% Inhibition of fungal growth at 50 μM” value in the data set on Aspergillus parasiticus is 84%. Besides, in data set [1], the “% Inhibition of Aflatoxin at 50 μM” value turned out to be 99%. Also, in data set [2], the logP worked out at 4.27.
The matching figures for `Cn1nc(C(F)F)c(C(=O)NC[Si](C)(C)c2cc(Cl)cc(Cl)c2)c1F` [Example 47]: 100%, 95%, 100%, 100% and 4.08.
Consider `Cc1cc(C(=O)N(C[Si](C)(C)c2cc(Cl)cc(Cl)c2)C2CC2)c(C)o1` [Example 50], for which the Efficacy in the data set on Alternaria solani amounted to 100%; in the data set with Pyrenophora teres it was 95%. The same compound registered a logP in data set [2] of 5.51.
For `Cc1nc(C(F)F)c(C(=O)N(C[Si](C)(C)c2cc(Cl)cc(Cl)c2)C2CC2)s1` [Example 53], in that order: 80%, 95% and 4.92.
For `Cn1nc(C(F)F)c(C(=O)N(C[Si](C)(C)Cc2ccccc2)C2CC2)c1Cl` [Example 54], in that order: 95%, 100% and 4.20.
`Cc1cc(C(=O)N(C[Si](C)(C)Cc2ccccc2)C2CC2)c(C)o1` [Example 56]: the logP in data set [2] was determined as 4.67.
For `Cn1nc(C(F)F)c(C(=S)N(C[Si](C)(C)Cc2ccccc2)C2CC2)c1F` [Example 57], the Efficacy in the data set on Alternaria solani was found to be 95%. Moreover, the logP in data set [2] came to 4.67.
`Cc1cc(C(=O)N(C[Si](C)(C)Cc2ccccc2Cl)C2CC2)c(C)o1` [Example 58] had a logP in data set [2] of 5.08.
`Cn1cc(C(=O)N(C[Si](C)(C)Cc2ccccc2Cl)C2CC2)c(C(F)F)c1` [Example 59] yielded an Efficacy in the data set with Pyrenophora teres of 70%. For the same compound, the logP in data set [2] worked out at 4.56.
With `Cn1nc(C(F)F)c(C(=O)N(C[Si](C)(C)Cc2ccccc2Cl)C2CC2)c1Cl` [Example 60], the Efficacy in the data set on Alternaria solani and in the data set with Pyrenophora teres was 95% in each case. Besides, the “% Inhibition of fungal growth at 50 μM” value in the data set with Aspergillus parasiticus is reported as 84%. Further, the “% Inhibition of Aflatoxin at 50 μM” value in data set [1] was 100%. This compound displayed a logP in data set [2] of 4.56.
As for `Cn1nc(C(F)F)c(C(=S)N(C[Si](C)(C)Cc2ccccc2Cl)C2CC2)c1F` [Example 62], the figures for the Efficacy in the data set on Alternaria solani and with Pyrenophora teres were 80% and 100%, respectively. Besides, the logP in data set [2] is 5.00.
Consider `Cc1cc(C(=O)N(C[Si](C)(C)Cc2cccc(Cl)c2)C2CC2)c(C)o1` [Example 63], for which, in the data set on Alternaria solani, the Efficacy is given as 70%. This compound also gave a logP in data set [2] of 5.11.
As to `Cn1cc(C(=O)N(C[Si](C)(C)Cc2cccc(Cl)c2)C2CC2)c(C(F)F)c1` [Example 64], the logP in data set [2] amounted to 4.62.
With `Cn1nc(C(F)F)c(C(=O)N(C[Si](C)(C)Cc2cc(Cl)cc(Cl)c2)C2CC2)c1Cl` [Example 67], in the data set on Alternaria solani, the Efficacy stood at 78%. The “% Inhibition of fungal growth at 50 μM” value in the data set on Aspergillus parasiticus is given as 86%. Further, the “% Inhibition of Aflatoxin at 50 μM” value in data set [1] came to 100%. This compound also came in with a logP in data set [2] of 5.14.
Consider `Cn1cc(C(=O)N(C[Si](C)(C)Cc2ccc(Cl)cc2Cl)C2CC2)c(C(F)F)c1` [Example 68], for which the Efficacy in the data set on Alternaria solani came to 70%. The logP in data set [2] is given as 5.19.
Consider `Cn1nc(C(F)F)c(C(=S)N(C[Si](C)(C)Cc2ccc(Cl)cc2Cl)C2CC2)c1F` [Example 71], for which the Efficacy in the data set with Alternaria solani was 95%; in the data set on Pyrenophora teres, 100%. Moreover, the logP in data set [2] stood at 5.57.
In the data set on Alternaria solani, `Cn1nc(C(F)F)c(C(=O)N(C[Si](C)(C)Cc2cc(Cl)cc(Cl)c2)C2CC2)c1F` [Example 72] showed an Efficacy of 89%. Moreover, the “% Inhibition of fungal growth at 50 μM” value in the data set with Aspergillus parasiticus was determined as 100%. For the same compound, the “% Inhibition of Aflatoxin at 50 μM” value in data set [1] is reported as 100%. The same compound had a logP in data set [2] of 4.98.
For `Cc1cc(C(=O)N(C[Si](C)(C)Cc2ccc(Cl)cc2Cl)C2CC2)c(C)o1` [Example 73], the logP in data set [2] came to 5.78.
Regarding `Cn1nc(C(F)F)c(C(=O)N(C[Si](C)(C)c2ccc3ccccc3c2)C2CC2)c1Cl` [Example 77], the logP in data set [2] was determined as 4.51.
On to `C[Si](C)(CN(C(=O)c1ccsc1I)C1CC1)c1ccc2ccccc2c1` [Example 78], for which, in data set [2], the logP is 5.17.
For “N-cyclohexyl-N-{[dimethyl(phenyl)silyl]methyl}-2-furamide [Example 5]”, the logP in data set [2] stood at 3.73.
